Data from PubChem BioAssay AID1259407 (Chemical Carcinogenesis Research Information System (CCRIS), 2018).
Activity calls are given as the source filed them. How the calls were made is not given here.

Test system: CCRIS mutagenicity, Ames/micronucleus/aberration tests
Test: CCRIS mutagenicity studies
[1] = Test System: AMES SALMONELLA TYPHIMURIUM, Strain/Indicator: TA98, Metabolic Activation: NONE, Method: STANDARD PLATE
[2] = Test System: AMES SALMONELLA TYPHIMURIUM, Strain/Indicator: TA98, Metabolic Activation: RAT, LIVER, S-9, AROCLOR 1254, Method: STANDARD PLATE
[3] = Test System: AMES SALMONELLA TYPHIMURIUM, Strain/Indicator: TA100, Metabolic Activation: NONE, Method: STANDARD PLATE
[4] = Test System: AMES SALMONELLA TYPHIMURIUM, Strain/Indicator: TA100, Metabolic Activation: RAT, LIVER, S-9, AROCLOR 1254, Method: STANDARD PLATE
[5] = Test System: AMES SALMONELLA TYPHIMURIUM, Strain/Indicator: TA1535, Metabolic Activation: NONE, Method: STANDARD PLATE
[6] = Test System: AMES SALMONELLA TYPHIMURIUM, Strain/Indicator: TA1535, Metabolic Activation: RAT, LIVER, S-9, AROCLOR 1254, Method: STANDARD PLATE
[7] = Test System: AMES SALMONELLA TYPHIMURIUM, Strain/Indicator: TA1537, Metabolic Activation: NONE, Method: STANDARD PLATE
[8] = Test System: AMES SALMONELLA TYPHIMURIUM, Strain/Indicator: TA1537, Metabolic Activation: RAT, LIVER, S-9, AROCLOR 1254, Method: STANDARD PLATE
[9] = Test System: AMES SALMONELLA TYPHIMURIUM, Strain/Indicator: TA1538, Metabolic Activation: NONE, Method: STANDARD PLATE
[10] = Test System: AMES SALMONELLA TYPHIMURIUM, Strain/Indicator: TA1538, Metabolic Activation: RAT, LIVER, S-9, AROCLOR 1254, Method: STANDARD PLATE
[11] = Test System: E. COLI, Strain/Indicator: WP2 UVRA, Metabolic Activation: NONE, Method: STANDARD PLATE

CC(=O)c1ccc(S(=O)(=O)NC(=O)NC2CCCCC2)cc1
mutagenic call (Test System: AMES SALMONELLA TYPHIMURIUM, Strain/Indicator: TA98, Metabolic Activation: HAMSTER, LIVER, S-9, AROCLOR 1254, Method: STANDARD PLATE): inactive; negative | mutagenic call (Test System: AMES SALMONELLA TYPHIMURIUM, Strain/Indicator: TA98, Metabolic Activation: HAMSTER, LIVER, S-9, Method: STANDARD PLATE): inactive; negative | mutagenic call (Test System: AMES SALMONELLA TYPHIMURIUM, Strain/Indicator: TA98, Metabolic Activation: MOUSE, LIVER, S-9, AROCLOR 1254, Method: STANDARD PLATE): inactive; negative | mutagenic call (Test System: AMES SALMONELLA TYPHIMURIUM, Strain/Indicator: TA98, Metabolic Activation: MOUSE, LIVER, S-9, Method: STANDARD PLATE): inactive; negative | mutagenic call [1]: inactive; negative | mutagenic call [2]: inactive; negative | mutagenic call (Test System: AMES SALMONELLA TYPHIMURIUM, Strain/Indicator: TA98, Metabolic Activation: RAT, LIVER, S-9, Method: STANDARD PLATE): inactive; negative | mutagenic call (Test System: AMES SALMONELLA TYPHIMURIUM, Strain/Indicator: TA100, Metabolic Activation: HAMSTER, LIVER, S-9, AROCLOR 1254, Method: STANDARD PLATE): inactive; negative | mutagenic call (Test System: AMES SALMONELLA TYPHIMURIUM, Strain/Indicator: TA100, Metabolic Activation: HAMSTER, LIVER, S-9, Method: STANDARD PLATE): inactive; negative | mutagenic call (Test System: AMES SALMONELLA TYPHIMURIUM, Strain/Indicator: TA100, Metabolic Activation: MOUSE, LIVER, S-9, AROCLOR 1254, Method: STANDARD PLATE): inactive; negative | mutagenic call (Test System: AMES SALMONELLA TYPHIMURIUM, Strain/Indicator: TA100, Metabolic Activation: MOUSE, LIVER, S-9, Method: STANDARD PLATE): inactive; negative | mutagenic call [3]: inactive; negative | mutagenic call [4]: inactive; negative | mutagenic call (Test System: AMES SALMONELLA TYPHIMURIUM, Strain/Indicator: TA100, Metabolic Activation: RAT, LIVER, S-9, Method: STANDARD PLATE): inactive; negative | mutagenic call (Test System: AMES SALMONELLA TYPHIMURIUM, Strain/Indicator: TA1535, Metabolic Activation: HAMSTER, LIVER, S-9, AROCLOR 1254, Method: STANDARD PLATE): inactive; negative | mutagenic call (Test System: AMES SALMONELLA TYPHIMURIUM, Strain/Indicator: TA1535, Metabolic Activation: HAMSTER, LIVER, S-9, Method: STANDARD PLATE): inactive; negative | mutagenic call (Test System: AMES SALMONELLA TYPHIMURIUM, Strain/Indicator: TA1535, Metabolic Activation: MOUSE, LIVER, S-9, AROCLOR 1254, Method: STANDARD PLATE): inactive; negative | mutagenic call (Test System: AMES SALMONELLA TYPHIMURIUM, Strain/Indicator: TA1535, Metabolic Activation: MOUSE, LIVER, S-9, Method: STANDARD PLATE): inactive; negative | mutagenic call [5]: inactive; negative | mutagenic call [6]: inactive; negative | mutagenic call (Test System: AMES SALMONELLA TYPHIMURIUM, Strain/Indicator: TA1535, Metabolic Activation: RAT, LIVER, S-9, Method: STANDARD PLATE): inactive; negative | mutagenic call (Test System: AMES SALMONELLA TYPHIMURIUM, Strain/Indicator: TA1537, Metabolic Activation: HAMSTER, LIVER, S-9, AROCLOR 1254, Method: STANDARD PLATE): inactive; negative | mutagenic call (Test System: AMES SALMONELLA TYPHIMURIUM, Strain/Indicator: TA1537, Metabolic Activation: HAMSTER, LIVER, S-9, Method: STANDARD PLATE): inactive; negative | mutagenic call (Test System: AMES SALMONELLA TYPHIMURIUM, Strain/Indicator: TA1537, Metabolic Activation: MOUSE, LIVER, S-9, AROCLOR 1254, Method: STANDARD PLATE): inactive; negative | mutagenic call (Test System: AMES SALMONELLA TYPHIMURIUM, Strain/Indicator: TA1537, Metabolic Activation: MOUSE, LIVER, S-9, Method: STANDARD PLATE): inactive; negative | mutagenic call [7]: inactive; negative | mutagenic call [8]: inactive; negative | mutagenic call (Test System: AMES SALMONELLA TYPHIMURIUM, Strain/Indicator: TA1537, Metabolic Activation: RAT, LIVER, S-9, Method: STANDARD PLATE): inactive; negative | mutagenic call (Test System: AMES SALMONELLA TYPHIMURIUM, Strain/Indicator: TA1538, Metabolic Activation: HAMSTER, LIVER, S-9, AROCLOR 1254, Method: STANDARD PLATE): inactive; negative | mutagenic call (Test System: AMES SALMONELLA TYPHIMURIUM, Strain/Indicator: TA1538, Metabolic Activation: HAMSTER, LIVER, S-9, Method: STANDARD PLATE): inactive; negative | mutagenic call (Test System: AMES SALMONELLA TYPHIMURIUM, Strain/Indicator: TA1538, Metabolic Activation: MOUSE, LIVER, S-9, AROCLOR 1254, Method: STANDARD PLATE): inactive; negative | mutagenic call (Test System: AMES SALMONELLA TYPHIMURIUM, Strain/Indicator: TA1538, Metabolic Activation: MOUSE, LIVER, S-9, Method: STANDARD PLATE): inactive; negative | mutagenic call [9]: inactive; negative | mutagenic call [10]: inactive; negative | mutagenic call (Test System: AMES SALMONELLA TYPHIMURIUM, Strain/Indicator: TA1538, Metabolic Activation: RAT, LIVER, S-9, Method: STANDARD PLATE): inactive; negative | mutagenic call (Test System: E. COLI, Strain/Indicator: WP2 UVRA, Metabolic Activation: HAMSTER, LIVER, S-9, AROCLOR 1254, Method: STANDARD PLATE): inactive; negative | mutagenic call (Test System: E. COLI, Strain/Indicator: WP2 UVRA, Metabolic Activation: HAMSTER, LIVER, S-9, Method: STANDARD PLATE): inactive; negative | mutagenic call (Test System: E. COLI, Strain/Indicator: WP2 UVRA, Metabolic Activation: MOUSE, LIVER, S-9, AROCLOR 1254, Method: STANDARD PLATE): inactive; negative | mutagenic call (Test System: E. COLI, Strain/Indicator: WP2 UVRA, Metabolic Activation: MOUSE, LIVER, S-9, Method: STANDARD PLATE): inactive; negative | mutagenic call [11]: inactive; negative | mutagenic call (Test System: E. COLI, Strain/Indicator: WP2 UVRA, Metabolic Activation: RAT, LIVER, S-9, AROCLOR 1254, Method: STANDARD PLATE): inactive; negative | mutagenic call (Test System: E. COLI, Strain/Indicator: WP2 UVRA, Metabolic Activation: RAT, LIVER, S-9, Method: STANDARD PLATE): inactive; negative

CC(C)(C)N(CCO)CCO
mutagenic call [1]: inactive; negative | mutagenic call [2]: inactive; negative | mutagenic call [3]: inactive; negative | mutagenic call [4]: inactive; negative | mutagenic call [5]: inactive; negative | mutagenic call [6]: inactive; negative | mutagenic call [7]: inactive; negative | mutagenic call [8]: inactive; negative | mutagenic call [9]: inactive; negative | mutagenic call [10]: inactive; negative | mutagenic call (Test System: CHINESE HAMSTER OVARY, Strain/Indicator: CHO-K1-BH4, Metabolic Activation: NONE): inactive; negative | mutagenic call (Test System: CHINESE HAMSTER OVARY, Strain/Indicator: CHO-K1-BH4, Metabolic Activation: RAT, LIVER, S-9, AROCLOR 1254): inactive; negative

Cc1ccc(C2CO2)cc1C (stereo unspecified)
mutagenic call (Test System: E. COLI, Strain/Indicator: WP2, Metabolic Activation: NONE, Method: STANDARD PLATE): active; positive | mutagenic call [11]: active; positive
